Data taken from patent publication US9834820B2, “Methods for the treatment and diagnosis of bone mineral density related diseases” (INSERM (Institut National de la Sante et de la Recherche …, priority 2007, dated 2017).
Entries after “also recorded” stand apart in the source; their conditions may differ.

Columns and labels:
[1] = system: RANKL expression in primary cultured osteoblasts; test: real-time quantitative PCR of RANKL mRNA in primary cultured osteoblasts; format: cell-based, human; conditions: for RANKL mRNA levels (in words): osteoblasts, FIG. 2b
Method: (§1) Human normal cranial suture were obtained after signed informed consent during routine surgery for craniosynostosis. Osteoblasts were cultured in Dulbecco's modified Eagle medium (with 10% fetal bovine serum) as described elsewhere (De Pollack, C. et al. 1996). […] Cells were harvested at day 3. Real-time quantitative PCR using Light Cycler technology (Roche Manheim) was performed for OPG and RANKL mRNA in each sample. The experiments were performed five times. In each experiment, samples were run in triplicate. The amounts of OPG and RANKL mRNA were normalized to the amount of β-actin mRNA. Student test was used for p values determination.

[2] = system: OPG expression in primary cultured osteoblasts; test: real-time quantitative PCR of OPG mRNA in primary cultured osteoblasts; format: cell-based, human; conditions: for OPG expression compared to control values: p<0.005; for OPG mRNA levels (in words): osteoblasts, FIG. 2b
Method: as §1

TXAS = conditions: read-out: IC50 as selective inhibitor of TXAS; cited from earlier work

SMILES	RANKL expression compared to control values ([1]; CTA2 5 μM added at day one, harvested day 3, p<0.005)	RANKL expression compared to control values ([1]; CTA2 15 μM added at day one, harvested day 3, p<0.03)	RANKL mRNA levels (in words) [1]	OPG expression compared to control values ([2]; CTA2 5 μM added at day one, harvested day 3) [%]	OPG expression compared to control values ([2]; CTA2 15 μM added at day one, harvested day 3) [%]	OPG mRNA levels (in words) [2]	RANKL expression compared to control values ([1]; Ozagrel 0.25 μM added daily during 3 days, normalized to β-actin mRNA, p<0.005) [%]	OPG expression compared to control values ([2]; Ozagrel 0.25 μM added daily during 3 days, normalized to β-actin mRNA)	IC50 (TXAS) [µM]
CCCCC[C@H](O)/C=C/[C@H]1CC2CC(C2)[C@@H]1C/C=C\CCCC(=O)O [CTA2]	+94%	+471%	augmentation; also recorded: increased	−40	−53	diminution; also recorded: decreased			
O=C(O)/C=C/c1ccc(Cn2ccnc2)cc1 [Ozagrel]			diminution			augmentation	−78	+50%	0.011
